{
  "source": "patent US8846644B2",
  "about": "“Phosphate-containing nanoparticle delivery vehicle” (priority 2009, dated 2014)",
  "test": "Hydrophilicity test (dispersion)",
  "type": "physicochemical",
  "data": [
    {"smiles": "CC(=O)O[C@H]1C(=O)[C@@]2(C)[C@H]([C@H](OC(=O)c3ccccc3)[C@]3(O)C[C@H](OC(=O)[C@H](O)[C@@H](NC(=O)c4ccccc4)c4ccccc4)C(C)=C1C3(C)C)[C@]1(OC(C)=O)CO[C@@H]1C[C@@H]2O", "note": "[paclitaxel]", "values": [
      {"measurement": "dispersion (hydrophilicity)", "result": 0.4, "unit": "µg/mL"}
    ]}
  ]
}
